Source: patent US12319913B2, “5-halouracil-modified microRNAs and their use in the treatment of cancer” (The Research Foundation for The State University of New York, priority 2018, dated 2025)
[5FU] = 5-fluorouracil base replacing uracil

Legend:
TS, BCL2 and E2F3 = assay: Western immunoblot of miR-129 targets in HCT-116 cells; assay type: cell-based, human; settings: colon cancer HCT-116 cells
Procedure: Western immunoblot analysis: Forty-eight hours after transfection, equal amounts of protein (15 μg) extracted from cells lysed in RIPA buffer with protease inhibitor (Sigma) and were separated on 10%-12% sodium dodecyl sulfate-polyacrylamide gels using standard procedures. The primary antibodies used for the analysis were rabbit anti-YAP1 monoclonal antibody (1:10000) (Cell Signaling Technologies), anti-DLCK1 (1:500) (Abcam), anti-BCL2 (1:500) (NeoMarkers), anti-MDC1 (1:500), anti-SUZ12 (1:500), anti-pChk-1 (1:500), anti beta-actin (1:500), anti-BMI-1 (1:10000) (Cell Signaling Technologies), mouse anti-human TS antibody (1:500), anti-α-tubulin (1:50000) (Santa Cruz Biotech Inc.), anti-GAPDH (1:100000) (Santa Cruz Biotech Inc.), anti-E2F3 (1:500) (Santa Cruz Biotech Inc.), Horseradish peroxidase-conjugated antibodies against mouse or rabbit (1:5000, Santa Cruz Biotech Inc.) were used as the secondary antibodies. Protein bands were visualized with autoradiography film using SuperSignal West Pico Chemiluminescent Substrate (Thermo Fischer). Western blot density was quantified using Image J software.

[1] = system: HCT-116 colon cancer cells; assay: 5-FU treatment and cytotoxicity assay (WST-1); assay type: cell-based, human; settings: 50 nM modified miR-129 vs 2 μM 5-FU
Procedure: 5-FU treatment and cytotoxicity assay: Twenty-four hours after transfection, cancer cells were plated in 96-well plates at 2×10^3 cells per well in triplicates in 100 μL of medium. After 24 hours, fresh medium containing 2 μM 5-FU alone, 50 nM native microRNA, 50 nM modified microRNA (e.g., modified miR-129), or a combination of […] with 50 nM a modified microRNA of the present disclosure e.g., modified miR-129, were added, and cells were cultured for an additional 72 hours. Cell viability was measured using the WST-1 assay.

[2] = system: HCT116, RKO, SW480, and SW620 colon cancer cells; assay: FITC-Annexin V apoptosis assay; parameters: species or system human; settings: FACS-based FITC-Annexin assay, all 4 colon cancer cell lines, compared to native miR-129 and negative control miRNA
Procedure: Apoptosis Assay. To distinguish between early and late apoptosis, a fluorescein isothiocyanate (FITC)—Annexin assay was done (Becton Dickinson). HCT116, RKO, SW480 and SW620 cells were plated into 6 well plates (1×10^5) cells per well, after 24 h, cells were transfected with 25 nM modified miRNAs using Oligofectamine. Forty-eight hours after transfection, cells were harvested, stained with propidium iodide and anti-annexin-V antibody (Annexin V-FITC Apoptosis Detection kit, Invitrogen, CA, USA) following the manufacturer's protocol, and stained cells were detected by flow cytometry.

[3] = system: colorectal cancer stem cell xenograft; assay: Colorectal cancer stem cell mouse xenograft model; assay type: in vivo; settings: cells pre transfected, eight weeks after injection, n=8
Procedure: Mouse subcutaneous tumor implantation model: Two days before injection, HCT116 colorectal cancer stem cells or MDA-MB-231 breast cancer cells were plated at 5×10^5/well in a 6-well ultra low attachment plate. 20 μL of the virus or 100 pmole exemplary modified miR-129 or modified miR-15a were used to transduce or transfect cells. Forty-eight hours later, cells were collected and re-suspended at 10^6/ml in DMEM/F12 knockout media with 30% matrigel. Ten-twelve week-old NOD/SCID mice (Jackson Laboratories, Bar Harbor, […], USA) were used for tumor implantation. The mice were anesthetized by isoflurane inhalation. 100 μL of cell suspension was injected subcutaneously into both sides of the lower back area. The tumor size was measured using a caliper, and tumor volume was calculated using the formula V=length×width^2/2.
Modified miR-15a inhibits cancer development and progression in vivo. A colorectal cancer stem cell mouse xenograft model was established that included colorectal cancer cells that have been either pre transfected with modified miR-15a or negative control miRNA. Eight weeks after injection, tumors were measured and harvested.

Substance | target specificity to TS, BCL2 and E2F3 (TS, BCL2 and E2F3; Western immunoblot) | reducing the expression levels of TS, BCL2 and E2F3 (TS, BCL2 and E2F3; compared with unmodified (control) miR-129) | inhibiting tumor cell proliferation, potency compared with 5-FU [1] | induction of apoptosis [2] [fold] | reduction in tumor size [3] [×]
CU^FU^FU^FU^FU^FGCGGU^FCU^FGGGCU^FU^FGC (CUUUUUGCGGUCUGGGCUUGC; RNA, [5FU] at 2, 3, 4, 5, 6, 11, 13, 18, 19, backbone not given here) [modified miR-129] | retain their target specificity | more potent than unmodified (control) miR-129 | much more potent than 2 μM 5-FU | 2 to 30 | –
U^FAGCAGCACAU^FAAU^FGGU^FU^FU^FGU^FG (UAGCAGCACAUAAUGGUUUGUG; RNA, [5FU] at 1, 11, 14, 17, 18, 19, 21, backbone not given here) [modified miR-15a] | – | – | – | – | > 25
